Test results published in PubChem BioAssay (NCI).
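How tested: cells in 96-well plates exposed to compound for 48 hours at five concentrations. TGI denotes the concentration required for complete inhibition of growth.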

How the values were obtained:
Assay in all cases: growth of human tumour cells (NCI), 48 h
SK-MEL-5 melanoma = tested on: SK-MEL-5 melanoma
SF-268 CNS = tested on: SF-268 CNS
LOX IMVI melanoma = tested on: LOX IMVI melanoma
CCRF-CEM leukemia = tested on: CCRF-CEM leukemia
BT-549 breast = tested on: BT-549 breast
SF-295 CNS = tested on: SF-295 CNS
NCI-H460 lung = tested on: NCI-H460 lung
COLO 205 colon = tested on: COLO 205 colon
PC-3 prostate = tested on: PC-3 prostate
SNB-75 CNS = tested on: SNB-75 CNS
OVCAR-5 ovarian = tested on: OVCAR-5 ovarian
U251 CNS = tested on: U251 CNS
NCI/ADR-RES ovarian = tested on: NCI/ADR-RES ovarian
SF-539 CNS = tested on: SF-539 CNS
MDA-MB-435 = tested on: MDA-MB-435
KM12 colon = tested on: KM12 colon
MCF7 breast = tested on: MCF7 breast
UACC-257 melanoma = tested on: UACC-257 melanoma
SK-MEL-2 melanoma = tested on: SK-MEL-2 melanoma
TK-10 renal = tested on: TK-10 renal
UACC-62 melanoma = tested on: UACC-62 melanoma
SK-OV-3 ovarian = tested on: SK-OV-3 ovarian
CAKI-1 renal = tested on: CAKI-1 renal
T-47D breast = tested on: T-47D breast
HS 578T breast = tested on: HS 578T breast
UO-31 renal = tested on: UO-31 renal
HCT-116 colon = tested on: HCT-116 colon
MDA-MB-231 breast = tested on: MDA-MB-231 breast
NCI-H522 lung = tested on: NCI-H522 lung
SN12C renal = tested on: SN12C renal
HOP-92 NSCLC = tested on: HOP-92 NSCLC
HCC-2998 colon = tested on: HCC-2998 colon
OVCAR-3 ovarian = tested on: OVCAR-3 ovarian
SW-620 colon = tested on: SW-620 colon
MDA-N = tested on: MDA-N
NCI-H23 lung = tested on: NCI-H23 lung
OVCAR-8 ovarian = tested on: OVCAR-8 ovarian
K-562 leukemia = tested on: K-562 leukemia
RXF 393 renal = tested on: RXF 393 renal
ACHN renal = tested on: ACHN renal
HT29 colon = tested on: HT29 colon
OVCAR-4 ovarian = tested on: OVCAR-4 ovarian
SR leukemia = tested on: SR leukemia
SNB-19 CNS = tested on: SNB-19 CNS
RPMI-8226 leukemia = tested on: RPMI-8226 leukemia
HL-60(TB) leukemia = tested on: HL-60(TB) leukemia
A549 NSCLC = tested on: A549 NSCLC
SK-MEL-28 melanoma = tested on: SK-MEL-28 melanoma
MOLT-4 leukemia = tested on: MOLT-4 leukemia
IGROV1 ovarian = tested on: IGROV1 ovarian
HCT-15 colon = tested on: HCT-15 colon
M14 melanoma = tested on: M14 melanoma
DU-145 prostate = tested on: DU-145 prostate
EKVX NSCLC = tested on: EKVX NSCLC
786-0 renal = tested on: 786-0 renal
NCI-H226 lung = tested on: NCI-H226 lung
MALME-3M melanoma = tested on: MALME-3M melanoma
HOP-62 NSCLC = tested on: HOP-62 NSCLC
A498 renal = tested on: A498 renal

Measured: TGI

NC(CCOCCP(=O)(O)O)C(=O)O (centres undefined)
> 100 µM: SK-MEL-5 melanoma | SF-268 CNS | LOX IMVI melanoma | CCRF-CEM leukemia | BT-549 breast | SF-295 CNS | NCI-H460 lung | COLO 205 colon | PC-3 prostate | SNB-75 CNS | OVCAR-5 ovarian | U251 CNS | NCI/ADR-RES ovarian | SF-539 CNS | MDA-MB-435 | KM12 colon | MCF7 breast | UACC-257 melanoma | SK-MEL-2 melanoma | TK-10 renal | UACC-62 melanoma | SK-OV-3 ovarian | CAKI-1 renal | T-47D breast | HS 578T breast | UO-31 renal | HCT-116 colon | MDA-MB-231 breast | NCI-H522 lung | SN12C renal | HOP-92 NSCLC | HCC-2998 colon | OVCAR-3 ovarian | SW-620 colon | MDA-N | NCI-H23 lung | OVCAR-8 ovarian | K-562 leukemia | RXF 393 renal | ACHN renal | HT29 colon | OVCAR-4 ovarian | SR leukemia | SNB-19 CNS | RPMI-8226 leukemia | HL-60(TB) leukemia | A549 NSCLC | SK-MEL-28 melanoma | MOLT-4 leukemia | IGROV1 ovarian | HCT-15 colon | M14 melanoma | DU-145 prostate | EKVX NSCLC

Cc1csc2c1-n1cccc1C2=O
> 100 µM: SK-MEL-5 melanoma | SF-268 CNS | LOX IMVI melanoma | 786-0 renal | NCI-H226 lung | CCRF-CEM leukemia | BT-549 breast | SF-295 CNS | MALME-3M melanoma | NCI-H460 lung | HOP-62 NSCLC | COLO 205 colon | PC-3 prostate | SNB-75 CNS | OVCAR-5 ovarian | U251 CNS | NCI/ADR-RES ovarian | MDA-MB-435 | KM12 colon | MCF7 breast | UACC-257 melanoma | SK-MEL-2 melanoma | TK-10 renal | UACC-62 melanoma | SK-OV-3 ovarian | CAKI-1 renal | T-47D breast | HS 578T breast | UO-31 renal | HCT-116 colon | MDA-MB-231 breast | NCI-H522 lung | SN12C renal | HCC-2998 colon | OVCAR-3 ovarian | SW-620 colon | MDA-N | OVCAR-8 ovarian | K-562 leukemia | RXF 393 renal | ACHN renal | HT29 colon | OVCAR-4 ovarian | A498 renal | SR leukemia | SNB-19 CNS | RPMI-8226 leukemia | A549 NSCLC | SK-MEL-28 melanoma | MOLT-4 leukemia | IGROV1 ovarian | HCT-15 colon | M14 melanoma | DU-145 prostate | EKVX NSCLC
